What was measured:
Format in all cases: cell-based, human
[1] = test system: HDF cells (misfolded proteins); experiment: FTIRM analysis, beta-sheet to alpha-helix ratio; settings: UVB-irradiated cells, SA 25 mM -/+ EX-527 1 μM
Experimental: (§1) Figure 4 (A) SRB and Trypan blue cell viability assays performed in cells treated with or without Shikimic acid (5, 10, 25 and 50 mM) for 24h. (B) Apoptosis detection using the Annexin V-FITC/PI double staining followed by flow cytometry in non-irradiated and non-treated cells, irradiated and non-treated cells and irradiated cells treated with Shikimic acid (10, 25 and 50 mM). (C) Representation and statistical analysis of the percentage of apoptotic cells in each of the conditions analyzed. (D) Cell cycle analysis using PI staining followed by flow cytometry. (E) Relative p16^INK4a mRNA levels monitored by qPCR in the indicated conditions. Student T-test, *p<0.05. (F) Immunofluorescence of γH2AX in non-irradiated and non-treated cells, irradiated and non-treated cells and irradiated cells treated with Shikimic acid (10, 25 and 50 mM). […]
FTIRM measurements were performed at the MIRAS beamline of ALBA Synchrotron using the internal (Globar®) source. […] The structure content of the amide I peak (1710-1598 cm−1) was determined by band deconvolution using Gaussian band fitting profiles (Origin 7.0 software). The position and number of peaks, which were assigned to specific types of secondary structures, were determined using the second derivative of the spectra.

[2] = test system: H4K16ac (the target of SIRT1 and SIRT2); experiment: Sirtuin activity assay in HDF: H4K16ac levels (Western blot); settings: HDF treated 24h
Experimental: Figure 1 (A) Schematic representation of the compound testing for sirtuin activity evaluation in HDF. Cells were treated with or without the compounds for 24h and harvested for analysis. […] (C) Western Blot analysis and (D) quantification of H4K16ac and H3K9ac levels in cells treated with Resveratrol or Shikimic acid at the indicated concentrations. H4K16 and H3K9 levels were normalized to H4 and H3 levels respectively. Student T-test, *p<0.05, **p<0.01, ***p<0.001.
HDFs were plated in 100x20 mm2 cell culture plates and after 24h, fresh cell culture medium containing the compounds was added. After 24h, cells were detached with cell scrapers, harvested, and processed for qPCR or western blot.
(§2) Protein levels were analyzed as previously described. Cells were directly lysed in 1x Laemmli Buffer (Bio-Rad, USA), incubated at 95° C and centrifuged. Supernatant was subjected to SDS-polyacrylamide gel electrophoresis, and successive steps were performed as described. The list of antibodies used is included in Supplementary Table 2.

SIRT1 = SIRT1 mRNA and protein levels in HDF; settings: Shikimic acid 5, 10, 25, 50 mM, 24h
Experimental: (§3) RNA was extracted from cell pellets using the Total RNA Purification Kit (Norgen, Canada), according to the manufacturer’s protocol. Extracted RNA was quantified using a NanoDrop® ND-1000 UV-Vis Spectrophotometer (Thermo Fisher Scientific, USA) and 300 ng of RNA were retrotranscribed to cDNA using the PrimeScriptTM RT reagent kit (Takara Bio Inc., Japan). cDNA was diluted 1/10 in ultrapure water and qPCR mix was prepared by adding cDNA (12 ng), SYBR green supermix (Bio Rad, USA), forward and reverse primers (0.2μM). The primers and their respective sequences are listed in Supplementary Table 1. qPCR protocol included one step at 95° C for 30 s, 40 cycles at 95° C for 10s, and 60° C for 1min. The results were analyzed with Bio-Rad CFX Manager software. BACT was used as a housekeeping gene to normalize gene expression.
as §2
Student T-test, *p<0.05, **p<0.01, ***p<0.001.
(1 picture or pasted object on this page, not shown here)

LC3-II = LC3-II protein levels (Western blot); settings: UVB-irradiated cells, SA -/+ EX-527 1 μM (reversion at SA 10mM)
Experimental: Figure 5 (A) Western-blot of BiP proteins levels in UVB or non UVB irradiated cells treated with SA at the indicated concentrations in presence or absence of EX-527 1 μM. (B) Quantification of n=3 experiments as (A). The levels of BiP are normalized by the loading control (histone H3) and represented related to the conditions in UVB irradiated cells in absence of SA and EX-527. Student T-test, *p<0.05. (C) Percentage of SA-β-Gal in assays performed as in Figure 3C. (D) Levels of spliced and unspliced XBP1 mRNA monitored by qPCR analysis in cells treated in the indicated conditions in presence or absence of SA and/or EX-527. The levels were normalized by internal controls and represented in each case related to the conditions in UVB irradiated cells in absence of SA and EX-527. Student T-test, *p<0.05, **p<0.01, ***p<0.001. (E) LC3-II protein levels in experiments like in (A). The levels of LC3-II are normalized by the loading control (tubulin) and represented related to the conditions in UVB irradiated cells in absence of SA and EX-527. Student T-test, *p<0.05. (F) Proposed Model for the effect of SA on senescence through SIRT1. Other possible unexplored connections between SA and senescence are indicated by blue broken lines.
Protein levels were analyzed as previously described. Cells were directly lysed in 1x Laemmli Buffer (Bio-Rad, USA), incubated at 95° C and centrifuged. […]

p16^INK4a = experiment: p16INK4a mRNA levels (qPCR); settings: UVB-irradiated HDF, SA treatment
Experimental: as §1, with “*p<0.05.” for “*p<0.05. (F) Immunofluorescence of γH2AX in non-irradiated and non-treated cells, irradiated and non-treated cells and irradiated cells treated with Shikimic acid (10, 25 and 50 mM).”
as §3, with “The primers and their respective sequences are listed in Supplementary Table 1. qPCR protocol included one step at 95° C for 30 s, 40 cycles at 95° C for 10s, and 60° C for 1min.” left out, “BACT was used as a housekeeping gene to normalize gene expression.” left out

[3] = test system: H4K16ac (the target of SIRT1 and SIRT2); experiment: Sirtuin activity assay in HDF: H4K16ac levels (Western blot); settings: UV conditions, -/+25mM SA -/+1μM EX-527

O=C(O)C1=C[C@@H](O)[C@@H](O)[C@H](O)C1 [Shikimic acid]
β-sheet/α-helix ratio (misfolded proteins) [1]: inhibited these levels well below the ratio observed in control cells | effect on H4K16ac levels [2]: induced a similar effect on both targets | SIRT1 gene expression and protein levels (SIRT1): did not observe any significant correlation with gene expression and protein levels | LC3-II protein levels (LC3-II): SA-dependent decrease in the levels of LC3-II | p16INK4a mRNA levels (p16^INK4a): downregulation of the cell cycle regulator p16 | H4K16ac/H4 levels under UV-induced senescence [3]: induced increased deacetylation of H3K9ac and H4K16ac

From publication PMC8148468, “Shikimic acid protects skin cells from UV-induced senescence through activation of the NAD+-dependent deacetylase SIRT1” (Aging (Albany NY), 2021)
